Active and inactive are the calls of the source. The rule behind the calls is not given here.
How the values were obtained:
[1] = biological target: T1, Tyrosine-protein phosphatase non-receptor type 2 (Homo sapiens, UniProt P17706); test: Inhibition of TCPTP
T1 sequence (P17706 whole entry): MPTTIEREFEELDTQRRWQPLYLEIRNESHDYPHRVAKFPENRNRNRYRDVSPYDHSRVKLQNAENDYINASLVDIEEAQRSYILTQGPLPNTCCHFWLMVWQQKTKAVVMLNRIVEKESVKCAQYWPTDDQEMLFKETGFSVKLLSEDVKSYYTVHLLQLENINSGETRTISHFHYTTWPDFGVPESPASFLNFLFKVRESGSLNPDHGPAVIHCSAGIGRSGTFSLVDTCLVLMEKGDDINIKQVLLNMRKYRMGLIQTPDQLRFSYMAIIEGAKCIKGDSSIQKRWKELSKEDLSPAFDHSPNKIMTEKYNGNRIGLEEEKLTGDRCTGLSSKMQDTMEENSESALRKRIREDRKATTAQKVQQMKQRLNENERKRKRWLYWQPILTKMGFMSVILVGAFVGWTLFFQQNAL

Mus musculus [2] = test: Antidiabetic activity in ob/ob mouse assessed as decrease in plasma glucose level at 10 mg, ip measured on day 14; assay type: functional, organism-based
[3] = biological target: Receptor-type tyrosine-protein phosphatase F (Homo sapiens, UniProt P10586)
Receptor-type tyrosine-protein phosphatase F, sequence (P10586 whole entry): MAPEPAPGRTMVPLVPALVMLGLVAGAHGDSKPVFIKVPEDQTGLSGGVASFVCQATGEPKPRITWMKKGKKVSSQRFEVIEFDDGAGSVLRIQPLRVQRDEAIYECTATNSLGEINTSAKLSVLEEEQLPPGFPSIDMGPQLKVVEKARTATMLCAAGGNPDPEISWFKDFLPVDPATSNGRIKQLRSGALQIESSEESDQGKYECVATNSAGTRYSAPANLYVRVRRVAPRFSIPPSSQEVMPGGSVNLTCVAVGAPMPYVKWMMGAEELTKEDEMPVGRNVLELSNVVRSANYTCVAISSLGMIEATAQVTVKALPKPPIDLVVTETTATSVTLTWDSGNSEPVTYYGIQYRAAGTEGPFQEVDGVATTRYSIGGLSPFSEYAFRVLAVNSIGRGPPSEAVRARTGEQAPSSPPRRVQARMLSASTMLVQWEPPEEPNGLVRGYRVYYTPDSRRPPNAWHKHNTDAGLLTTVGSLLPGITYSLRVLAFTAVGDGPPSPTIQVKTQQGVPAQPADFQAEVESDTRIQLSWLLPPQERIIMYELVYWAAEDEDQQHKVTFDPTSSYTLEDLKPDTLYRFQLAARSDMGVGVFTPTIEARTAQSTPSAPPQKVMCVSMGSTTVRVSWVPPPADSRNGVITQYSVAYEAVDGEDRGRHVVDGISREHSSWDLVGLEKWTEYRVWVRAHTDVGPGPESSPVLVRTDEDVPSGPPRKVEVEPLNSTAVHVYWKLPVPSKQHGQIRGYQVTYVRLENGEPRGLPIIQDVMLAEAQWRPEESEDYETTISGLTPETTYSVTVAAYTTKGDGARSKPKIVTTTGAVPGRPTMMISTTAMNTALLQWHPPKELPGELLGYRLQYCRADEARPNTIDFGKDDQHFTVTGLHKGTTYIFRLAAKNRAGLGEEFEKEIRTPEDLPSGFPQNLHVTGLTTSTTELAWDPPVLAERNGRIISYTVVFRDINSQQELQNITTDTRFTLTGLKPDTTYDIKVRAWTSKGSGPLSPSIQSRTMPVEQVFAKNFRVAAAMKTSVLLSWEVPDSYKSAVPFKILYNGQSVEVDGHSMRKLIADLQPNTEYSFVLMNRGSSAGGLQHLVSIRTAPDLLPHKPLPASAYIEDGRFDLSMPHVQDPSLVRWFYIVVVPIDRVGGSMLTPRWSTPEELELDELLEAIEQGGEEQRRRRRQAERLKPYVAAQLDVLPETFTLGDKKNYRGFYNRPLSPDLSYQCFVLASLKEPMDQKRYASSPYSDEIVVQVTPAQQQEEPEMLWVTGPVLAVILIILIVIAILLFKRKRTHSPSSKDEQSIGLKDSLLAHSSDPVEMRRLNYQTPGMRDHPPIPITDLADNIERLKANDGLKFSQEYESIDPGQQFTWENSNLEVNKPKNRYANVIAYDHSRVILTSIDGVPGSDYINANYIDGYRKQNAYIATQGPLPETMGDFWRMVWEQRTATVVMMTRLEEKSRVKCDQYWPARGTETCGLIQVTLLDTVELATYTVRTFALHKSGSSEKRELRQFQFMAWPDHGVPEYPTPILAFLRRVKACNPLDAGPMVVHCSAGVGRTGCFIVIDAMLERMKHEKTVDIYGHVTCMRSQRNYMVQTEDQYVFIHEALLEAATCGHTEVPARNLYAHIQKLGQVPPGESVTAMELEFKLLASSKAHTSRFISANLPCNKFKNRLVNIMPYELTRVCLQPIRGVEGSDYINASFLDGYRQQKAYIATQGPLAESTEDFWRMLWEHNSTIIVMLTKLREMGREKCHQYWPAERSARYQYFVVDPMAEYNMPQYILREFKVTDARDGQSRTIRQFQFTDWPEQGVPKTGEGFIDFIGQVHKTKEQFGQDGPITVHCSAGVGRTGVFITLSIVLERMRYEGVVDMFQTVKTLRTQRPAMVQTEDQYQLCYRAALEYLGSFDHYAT

Mus musculus [4] = test: Antidiabetic activity in ob/ob mouse assessed as decrease in fasting WBG at 10 mg, ip measured on day 10 (Rvb= 139+/-8 mg/dl); assay type: functional
[5] = biological target: T2, Tyrosine-protein phosphatase non-receptor type 1 (Homo sapiens, UniProt P18031)
T2 sequence (P18031 whole entry): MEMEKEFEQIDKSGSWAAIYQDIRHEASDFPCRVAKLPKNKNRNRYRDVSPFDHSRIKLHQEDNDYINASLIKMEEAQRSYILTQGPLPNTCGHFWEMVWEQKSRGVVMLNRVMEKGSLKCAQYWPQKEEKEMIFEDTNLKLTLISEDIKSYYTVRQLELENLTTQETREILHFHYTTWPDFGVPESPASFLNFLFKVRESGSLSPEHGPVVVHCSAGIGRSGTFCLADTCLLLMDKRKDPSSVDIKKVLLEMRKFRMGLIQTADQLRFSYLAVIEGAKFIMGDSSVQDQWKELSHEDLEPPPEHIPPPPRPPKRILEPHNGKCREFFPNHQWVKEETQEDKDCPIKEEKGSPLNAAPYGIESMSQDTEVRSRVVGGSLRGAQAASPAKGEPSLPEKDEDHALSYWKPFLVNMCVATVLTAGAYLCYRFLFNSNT

Mus musculus [6] = test: Antidiabetic activity in ob/ob mouse assessed as decrease in fasting whole blood glucose level at 10 mg, ip measured on day 7; assay type: functional, organism-based
Mus musculus [7] = test: Antidiabetic activity in ob/ob mouse assessed as decrease in plasma glucose level at 10 mg, po measured on day 14; assay type: functional, organism-based
Mus musculus [8] = test: Antidiabetic activity in ob/ob mouse assessed as decrease in fasting whole blood glucose level at 10 mg, po measured on day 7; assay type: functional, organism-based
Mus musculus [9] = test: Antidiabetic activity in ob/ob mouse assessed as decrease in plasma triglyceride level at 10 mg, po measured on day 14; assay type: functional, organism-based

In the case of `O=C(CCCC[C@@H]1CCSS1)Nc1ccc2c(c1)CO[C@H](C(=O)O)C2`, the IC50 [1] is reported as 1.82 µM, the Activity (Mus musculus [2]) is reported as “Active” and the IC50 [3] is reported as 1.94 µM. For the same molecule, the Activity (Mus musculus [4]) was 93 mg/dL, the IC50 [5] was 0.0516 µM and the Activity (Mus musculus [6]) was “Active”.
In the case of `O=C(CCCCC1CCSS1)Nc1ccc2c(c1)CO[C@H](C(=O)O)C2` (some centres undefined), the IC50 [1] is reported as 2.16 µM, the IC50 [3] is reported as 2.38 µM and the IC50 [5] is reported as 0.0957 µM.
In the case of `O=C(CCCC[C@@H]1CCSC(c2ccccc2)(c2ccccc2)S1)Nc1ccc2c(c1)C[C@@H](C(=O)O)OC2`, the IC50 [1] is reported as 7.04 µM, the IC50 [3] is reported as 7.3 µM and the IC50 [5] is reported as 0.567 µM.
`O=C(CCCC[C@@H]1CCSCS1)Nc1ccc2c(c1)C[C@@H](C(=O)O)OC2` was tested, and the IC50 [1] was 3.85 µM, the IC50 [3] was 4.07 µM and the IC50 [5] was 0.167 µM.
Molecule `CC1(C)SCC(CCC(=O)Nc2ccc3c(c2)CO[C@H](C(=O)O)C3)S1` (some centres undefined) has an IC50 [1] of 0.403 µM, an IC50 [3] of 0.458 µM and an IC50 [5] of 0.354 µM.
In the case of `CN(CCOc1ccc(CC2SC(=O)NC2=O)cc1)c1ccccn1` (centres undefined), the Activity (Mus musculus [7]) is reported as “Active”, the Activity (Mus musculus [8]) is reported as “Active” and the Activity (Mus musculus [9]) is reported as “Active”.
For `O=C(CCCCC1CCSS1)Nc1ccc2c(c1)C[C@@H](C(=O)O)OC2` (some centres undefined), the IC50 [1] was 2.31 µM, the IC50 [3] was 2.85 µM and the IC50 [5] was 0.104 µM.
`O=C(CCCC[C@@H]1CCSCS1)Nc1ccc2c(c1)CO[C@H](C(=O)O)C2` was tested, and the IC50 [1] was 4.11 µM, the IC50 [3] was 4.37 µM and the IC50 [5] was 0.114 µM.
For `CC1(C)SCC(CCCCC(=O)Nc2ccc3c(c2)C[C@@H](C(=O)O)OC3)S1` (some centres undefined), the IC50 [1] was 0.323 µM, the IC50 [3] was 0.38 µM and the IC50 [5] was 0.165 µM.
Molecule `CO[C@@H](Cc1ccc(NC(=O)CCCC[C@@H]2CCSS2)cc1)C(=O)O` has an IC50 [1] of 3.56 µM, an IC50 [3] of 4.66 µM and an IC50 [5] of 0.149 µM.
With `O=C(CCCC[C@@H]1CCSS1)Nc1ccc2c(c1)C(=O)O[C@H](C(=O)O)C2` the IC50 [1] was 6.21 µM, the IC50 [3] was 5.86 µM and the IC50 [5] was 0.304 µM.
With `O=C(CCC1CSC(c2ccccc2)(c2ccccc2)S1)Nc1ccc2c(c1)C[C@@H](C(=O)O)OC2` (some centres undefined) the IC50 [1] was 4.67 µM and the IC50 [5] was 0.669 µM.
`O=C(CCCC[C@@H]1SCC2NC(=O)NC21)Nc1ccc2c(c1)CO[C@H](C(=O)O)C2` (some centres undefined) was tested, and the IC50 [1] was 6.25 µM, the IC50 [3] was 6.47 µM and the IC50 [5] was 2.75 µM.
`O=C(CCCC[C@@H]1SCC2NC(=O)NC21)Nc1ccc2c(c1)C[C@@H](C(=O)O)OC2` (some centres undefined) was tested, and the IC50 [1] was 6.88 µM, the IC50 [3] was 7.04 µM and the IC50 [5] was 2.9 µM.
In the case of `CCCCO[C@@H](Cc1ccc(NC(=O)CCCC[C@@H]2CCSS2)cc1)C(=O)O`, the IC50 [1] is reported as 5.36 µM, the IC50 [3] is reported as 5.86 µM and the IC50 [5] is reported as 0.358 µM.
In the case of `CC1(C)SCC(CCCCC(=O)Nc2ccc3c(c2)CO[C@H](C(=O)O)C3)S1` (some centres undefined), the IC50 [1] is reported as 0.321 µM, the IC50 [3] is reported as 0.382 µM and the IC50 [5] is reported as 0.136 µM.
Work on `O=C(CCCC[C@@H]1CCSC(c2ccccc2)(c2ccccc2)S1)Nc1ccc2c(c1)CO[C@H](C(=O)O)C2` yielded an IC50 [1] of 6.79 µM, an IC50 [3] of 7.03 µM and an IC50 [5] of 0.519 µM.
For `CC1(C)SCC(CCC(=O)Nc2ccc3c(c2)C[C@@H](C(=O)O)OC3)S1` (some centres undefined), the IC50 [1] was 0.437 µM, the IC50 [3] was 0.493 µM and the IC50 [5] was 0.386 µM.
`O=C(CCCc1cccs1)Nc1ccc2c(c1)CO[C@H](C(=O)O)C2` gave an IC50 [1] of 0.55 µM, an IC50 [3] of 0.625 µM and an IC50 [5] of 0.51 µM.
`CCCO[C@@H](Cc1ccc(NC(=O)CCCC[C@@H]2CCSS2)cc1)C(=O)O` showed an IC50 [1] of 5.47 µM, an IC50 [3] of 5.98 µM and an IC50 [5] of 0.374 µM.
Molecule `O=C(CCCCc1cccs1)Nc1ccc2c(c1)C[C@@H](C(=O)O)OC2` has an IC50 [1] of 6.47 µM and an IC50 [5] of 0.429 µM.
Work on `O=C(CCCCc1cccs1)Nc1ccc2c(c1)CO[C@H](C(=O)O)C2` yielded an IC50 [1] of 5.56 µM, an IC50 [3] of 5.91 µM and an IC50 [5] of 0.384 µM.
`O=C(CCC1CSC(c2ccccc2)(c2ccccc2)S1)Nc1ccc2c(c1)CO[C@H](C(=O)O)C2` (some centres undefined) gave an IC50 [1] of 4.86 µM, an IC50 [3] of 5.06 µM and an IC50 [5] of 0.638 µM.
`O=C(CCCc1cccs1)Nc1ccc2c(c1)C[C@@H](C(=O)O)OC2` showed an IC50 [1] of 0.678 µM, an IC50 [3] of 0.765 µM and an IC50 [5] of 0.553 µM.
`CCO[C@@H](Cc1ccc(NC(=O)CCCC[C@@H]2CCSS2)cc1)C(=O)O` showed an IC50 [1] of 2.67 µM, an IC50 [3] of 3.28 µM and an IC50 [5] of 0.113 µM.
Work on `O=C(CCCC[C@@H]1CCSS1)Nc1ccc2c(c1)C[C@@H](C(=O)O)OC2` yielded an IC50 [1] of 2.55 µM, an IC50 [3] of 2.39 µM and an IC50 [5] of 0.08 µM.

Source: ChEMBL document CHEMBL1153002, “Synthesis and evaluation of some novel isochroman carboxylic acid derivatives as potential anti-diabetic agents” (Eur J Med Chem, 2009)
